Test results: article PMC8419314, “Characterization of Compound-Specific, Concentration-Independent Biophysical Properties of Sodium Channel Inhibitor Mechanism of Action Using Automated Patch-Clamp Electrophysiology” (Frontiers in Pharmacology, 2021)
Where “and” joins values, the source holds several entries; their conditions need not be identical. Equal values may be shown once. Read-outs that look alike come from different tables or passages of the source.

Legend:
rNaV1.4 channel [1] = biological target: T1, rNaV1.4 channel (Rattus norvegicus, UniProt P15390); assay: automated patch-clamp 17-pulse protocol (SDO, RFI, SSI), IonFlux Mercury, cell ensembles; type: cell-based; conditions: pulse #5, SDO section; read-out: IC50 #5 (after 65.7 ms depol.)
T1 construct: expressed in transfected cells; host or cells: HEK 293

rNaV1.4 channel [2] = biological target: T1, rNaV1.4 channel; assay: as above; type: cell-based; conditions: for Ki: inactivated-state affinity, calculated with equation of Bean et al. (1983)
Experimental: Cell culture and electrophysiology were done as described in the accompanying paper ([Lukacs et al., 2021]). The recombinant rNaV1.4 channel-expressing cell line was generated as described before ([Lukacs et al., 2018]). Transfected HEK 293 cells were maintained in Dulbecco’s Modified Eagle Medium, high glucose supplemented with 10% v/v fetal bovine serum, 100 U/ml of penicillin/streptomycin, and 0.4 mg/ml Geneticin (Life Technologies, Carlsbad, CA). For experiments, cells were dissociated from culture dishes with Accutase (Corning), shaken in serum-free medium for 60 min at room temperature, then centrifuged, and resuspended into the extracellular solution to a concentration of 5 × 10^6 cells/mL. Voltage-clamp recordings were performed on an IonFlux Mercury instrument (Fluxion Biosciences). The composition of solutions (in mM) was: Intracellular solution: 50 CsCl, 10 NaCl, 60 CsF, 20 EGTA, and 10 HEPES; pH 7.2 (adjusted with 1 M CsOH). Extracellular solution: 140 NaCl, 4 KCl, 1 MgCl2, 2 CaCl2, 5 D-Glucose, and 10 HEPES; pH 7.4 (adjusted with 1 M NaOH). The osmolality of intra-and extracellular solutions was set to ∼320 and ∼330 mOsm, respectively. Data were sampled at 20 kHz, and filtered at 10 kHz. Experiments were carried out at room temperature.
Each zone consists of 8 separate sections, which are distinct functional units, containing 12 wells: one well for the cell suspension, one well for the waste, two cell “traps” (intracellular solution-filled wells under negative pressure to establish high resistance seals and then whole-cell configuration), and eight compound wells. […] Two kinds of microfluidic plates are manufactured: In single-cell plates, each cell trap contains a single hole and therefore catches a single cell. In “ensemble plates” there are 20 holes in each cell trap, and 20 cells are recorded simultaneously. […] From the 16 cell ensembles of each zone, we chose n = 6 ensembles for analysis.
We used a complex 17-pulse voltage protocol (Figure 1A), described in detail in the accompanying paper ([Lukacs et al., 2021]), which allowed the assessment of gating kinetics and gating equilibrium in the absence and the presence of inhibitor/modulator compounds. The protocol investigated the effect of different durations of depolarizations: 2.5, 7.5, 22.5, and 67.5 ms with 2.5 ms hyperpolarizing gaps between them; this section (pulses #1 to #5) is shown by different shades of green in Figure 1, and was named “state-dependent onset” (SDO). Next, pulses #6 to #12, as well as #1 investigated the effect of different durations of hyperpolarizations (1, 2, 4, 8, 16, 32, 64, and 498 ms, separated by 5 ms depolarizations) in the section shown by different shades of blue, and named “recovery from inactivation” (RFI). Finally, pulses #12 to #17 assessed the resting-inactivated equilibrium at different membrane potentials in the section named “steady-state inactivation” (SSI). The three sections were similar to protocols we used in previous studies ([Lukacs et al., 2018]; [Földi et al., 2021]).
In addition to automatic fitting, described in the accompanying paper ([Lukacs et al., 2021]), in this study we used a different approach to process SDO, RFI, and SSI data. This analysis focused on deriving compound-specific but concentration-independent descriptors of the mechanism of action, which can lead to a more thorough understanding of the sub-processes involved in drug action, and which can later serve as a basis for constructing kinetic models for the simulation of drug-specific effects. All data analysis was done in Microsoft Excel (RRID:SCR_016137) environment, using VBA routines to accelerate repetitive data management tasks. For each of the 17 pulses peak amplitudes were measured after removing capacitive artifacts and subtracting the leak.

sodium channel [3] = conditions: from 10 Hz to 50 Hz; ref Desaphy et al. (2014); cited from earlier work
sodium channel [4] = biological target: sodium channel; set-up: method as in Vladimirov et al., 2000; conditions: resting-state; ref Vladimirov et al., 2000; read-out: KR; cited from earlier work
sodium channel [5] = biological target: sodium channel; set-up: method as in Lenkey et al., 2010; conditions: resting-state; ref Lenkey et al., 2010; read-out: KR; cited from earlier work
[6] = 1st pulse-evoked current, resting-state estimate, n = 6 ensembles, read-out: IC50 #1 (estimated KR)
[7] = pulse #7, RFI section, read-out: IC50 #7 (after 1 ms hyperpol.)
[8] = pulse #17, SSI section, read-out: IC50 #17 (−70 mV)
[9] = time range within which effective inhibitor potency changes upon depolarization
[10] = time range within which effective inhibitor potency changes upon hyperpolarization

T1 sequence (P15390 whole entry): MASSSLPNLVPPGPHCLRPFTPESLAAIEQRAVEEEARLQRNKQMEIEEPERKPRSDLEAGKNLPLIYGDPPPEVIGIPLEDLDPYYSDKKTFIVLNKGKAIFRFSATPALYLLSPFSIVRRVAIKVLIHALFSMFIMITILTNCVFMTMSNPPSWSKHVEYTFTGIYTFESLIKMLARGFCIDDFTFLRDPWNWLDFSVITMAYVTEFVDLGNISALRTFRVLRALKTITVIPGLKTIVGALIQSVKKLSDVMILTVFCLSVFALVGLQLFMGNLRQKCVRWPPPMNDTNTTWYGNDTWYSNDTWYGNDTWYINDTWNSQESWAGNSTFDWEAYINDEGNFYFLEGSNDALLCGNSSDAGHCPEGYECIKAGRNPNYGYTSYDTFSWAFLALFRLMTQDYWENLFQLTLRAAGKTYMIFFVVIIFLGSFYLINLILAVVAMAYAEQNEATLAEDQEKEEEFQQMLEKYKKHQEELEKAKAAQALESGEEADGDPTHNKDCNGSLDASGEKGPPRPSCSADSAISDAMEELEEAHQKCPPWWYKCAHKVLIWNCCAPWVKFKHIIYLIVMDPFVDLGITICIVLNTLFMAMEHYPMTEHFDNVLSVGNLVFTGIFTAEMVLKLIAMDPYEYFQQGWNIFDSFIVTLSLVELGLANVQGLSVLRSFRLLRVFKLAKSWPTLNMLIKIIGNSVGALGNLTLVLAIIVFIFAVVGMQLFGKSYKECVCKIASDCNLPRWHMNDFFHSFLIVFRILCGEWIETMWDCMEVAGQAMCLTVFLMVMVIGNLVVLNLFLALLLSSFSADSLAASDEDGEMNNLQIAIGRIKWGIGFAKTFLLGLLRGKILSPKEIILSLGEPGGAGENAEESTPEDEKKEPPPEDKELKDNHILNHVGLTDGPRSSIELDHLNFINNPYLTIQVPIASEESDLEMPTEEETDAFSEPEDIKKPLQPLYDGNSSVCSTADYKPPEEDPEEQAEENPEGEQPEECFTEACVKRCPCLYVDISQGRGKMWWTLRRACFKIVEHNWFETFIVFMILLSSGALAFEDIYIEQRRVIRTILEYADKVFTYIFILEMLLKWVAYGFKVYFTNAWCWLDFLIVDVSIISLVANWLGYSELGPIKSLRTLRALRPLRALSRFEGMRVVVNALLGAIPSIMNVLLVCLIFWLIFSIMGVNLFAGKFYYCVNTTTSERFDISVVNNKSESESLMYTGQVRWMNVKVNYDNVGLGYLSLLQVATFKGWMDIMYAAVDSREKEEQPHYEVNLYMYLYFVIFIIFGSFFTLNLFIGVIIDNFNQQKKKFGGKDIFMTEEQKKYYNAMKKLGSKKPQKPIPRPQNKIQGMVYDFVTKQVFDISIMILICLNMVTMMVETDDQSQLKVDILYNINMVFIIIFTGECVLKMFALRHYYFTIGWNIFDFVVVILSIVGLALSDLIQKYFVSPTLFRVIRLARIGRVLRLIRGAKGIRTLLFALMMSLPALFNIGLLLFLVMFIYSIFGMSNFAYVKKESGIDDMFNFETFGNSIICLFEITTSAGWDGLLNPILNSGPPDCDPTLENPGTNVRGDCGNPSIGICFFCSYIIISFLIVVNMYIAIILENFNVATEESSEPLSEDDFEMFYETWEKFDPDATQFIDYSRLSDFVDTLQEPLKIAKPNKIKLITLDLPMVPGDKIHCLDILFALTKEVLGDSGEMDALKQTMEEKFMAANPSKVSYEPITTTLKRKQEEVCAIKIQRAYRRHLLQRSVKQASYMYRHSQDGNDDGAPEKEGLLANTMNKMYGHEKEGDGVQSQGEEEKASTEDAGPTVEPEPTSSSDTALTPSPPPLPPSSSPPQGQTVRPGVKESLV

Compound	IC50 (rNaV1.4 channel [1])	IC50 (rNaV1.4 channel [2]; [6])	Ki (rNaV1.4 channel [2])	macro-offset time constant (rNaV1.4 channel [2]; offset upon drug washout)	IC50 (rNaV1.4 channel [2]; [7])	IC50 (rNaV1.4 channel [2]; [8])	KR/KI ratio (rNaV1.4 channel [2]; state-dependence)	micro-onset range (rNaV1.4 channel [2]; [9])	micro-offset range (rNaV1.4 channel [2]; [10])	KR/KI ratio (rNaV1.4 channel [2])	macro-offset time constant (rNaV1.4 channel [2])	micro-offset range (rNaV1.4 channel [2])	micro-onset range (rNaV1.4 channel [2])	other results
CCOC(=O)c1ccc(N)cc1 [Benzocaine, benzocaine]	1300 µM	2240 µM	79.4 ± 3.9 µM	1.42 ± 0.59 s	290 ± 22.3 µM	170 ± 10.3 µM	28.3 ± 3.8	0.1 to 2 ms	0.1 to 4 ms					fraction of channels inhibited (rNaV1.4 channel [2]; 100 µM, indicated by KI calculated from SSI data): more than half; channels recovered (rNaV1.4 channel [2]; at 2 ms gap duration): 70–90%; time for micro-offset to be complete (rNaV1.4 channel [2]; offset of effect upon hyperpolarization): ≤ 4 ms; time for micro-onset to be complete (rNaV1.4 channel [2]; onset of effect upon depolarization): ≤ 2.5 ms; KR/KI ratio (rNaV1.4 channel [2]; state-dependence, listed as benzocaine): 28.3
Nc1nc2ccc(OC(F)(F)F)cc2s1 [Riluzole, riluzole]	27.4 ± 6.44 µM	1360 µM	5.63 ± 3.35 µM	13.6 ± 0.71 s	42.1 ± 3.62 µM	6.86 ± 4.36 µM								increase of apparent affinity (sodium channel [3]): 48 fold; inhibition, pulses #1, #6 and #12 (rNaV1.4 channel [2]; 100 µM, single cell ensemble): no inhibition; inhibition, pulses #7 and #17 (rNaV1.4 channel [2]; 100 µM, single cell ensemble): almost full inhibition
CCCCN1CCCCC1C(=O)Nc1c(C)cccc1C (stereo not shown) [Bupivacaine, bupivacaine]	27.3 ± 1.45 µM	94.6 ± 10.7 µM	12.7 ± 1.22 µM	3.56 ± 0.43 s	33.5 ± 2.32 µM	16.3 ± 1.7 µM	7.48 ± 0.68	100–1,000 ms	100–1,000 ms					Kd (sodium channel [4]): ~317 µM; Kd (sodium channel [5]): ~619 µM; macro-offset time constant (rNaV1.4 channel [2]; offset upon drug washout, listed as bupivacaine): 3.56 s; KR/KI ratio (rNaV1.4 channel [2]; state-dependence, listed as bupivacaine): 7.48
NC1=N[C@H](O)[C@H]2[C@H]3O[C@]4(O)O[C@@H]([C@@H](O)[C@@]2(N1)[C@@H]4O)[C@]3(O)CO [Tetrodotoxin, tetrodotoxin]										1.7 ± 0.11	22.9 ± 1.50 s	1 to 10 ms	1 to 100 ms	extent of change of EIP during SDO, RFI and SSI sections (rNaV1.4 channel [2]): less than 2 fold; IC50 (rNaV1.4 channel [2]; read-out: IC50 #1 (estimated KR)): 0.028 µM; IC50 (rNaV1.4 channel [2]; read-out: IC50 #5 (after 65.7 ms depol.)): 0.015 µM; IC50 (rNaV1.4 channel [2]; read-out: IC50 #7 (after 1 ms hyperpol.)): 0.018 µM; IC50 (rNaV1.4 channel [2]; read-out: IC50 #17 (−70 mV)): 0.018 µM
CCN(CC)CC(=O)Nc1c(C)cccc1C [Lidocaine, lidocaine]	31.9 ± 2.28 µM	1280 µM	18.4 ± 1.52 µM		71.7 ± 5.83 µM	22.8 ± 2.04 µM				69.7 and 69.7 ± 20.9	1.72 ± 0.05 s	10 to 500 ms	1 to 100 ms	time for micro-onset to be complete (rNaV1.4 channel [2]): more than 100 ms
